Assay results reported in the supplement of paper PMC11061612.

Assays:
Test in all cases: Bliss excess, mean over the matrix (fraction); higher = more synergy
[1] = tested on: NCI-H1435 (Non-Small Cell Lung Carcinoma)
Procedure, shortened: (§1)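 Cell lines in DMEM/F12 or RPMI with 10% FBS were plated in 1536-well plates, held 24 hours at 37°C, 5% CO2, then given two-drug dose matrices for 72 hours (DMSO typically 0.2%). Viability was read by CellTiter-Glo 2.0 luminescence and scaled as inhibition from 0 (vehicle wells) to 1 (blank wells). Combination Emax is the second-highest inhibition in the matrix; Bliss excess is observed combination effect minus expected EA + EB − EA·EB, EA and EB being single-agent effects.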

GCIY (Gastric Carcinoma) = tested on: GCIY (Gastric Carcinoma)
Procedure, shortened: as §1

[2] = tested on: COR-L105 (Lung Adenocarcinoma)
Procedure, shortened: as §1

[3] = tested on: MRK-nu-1 (Breast Carcinoma)
Procedure, shortened: as §1

[4] = tested on: RPMI-8402 (T-Lymphoblastic Leukemia)
Procedure, shortened: as §1

SK-MEL-24 (Melanoma) = tested on: SK-MEL-24 (Melanoma)
Procedure, shortened: as §1

[5] = tested on: KNS-62 (Squamous Cell Lung Carcinoma)
Procedure, shortened: as §1

[6] = tested on: CAL-85-1 (Breast Carcinoma)
Procedure, shortened: as §1

[7] = tested on: NCI-H2009 (Lung Adenocarcinoma)
Procedure, shortened: as §1

MG-63 (Osteosarcoma) = tested on: MG-63 (Osteosarcoma)
Procedure, shortened: as §1

[8] = tested on: MDA-MB-175-VII (Breast Carcinoma)
Procedure, shortened: as §1

[9] = tested on: SW1463 (Colorectal Carcinoma)
Procedure, shortened: as §1

[10] = tested on: BC-1 (B-Cell Non-Hodgkin's Lymphoma)
Procedure, shortened: as §1

[11] = tested on: SBC-3 (Small Cell Lung Carcinoma)
Procedure, shortened: as §1

[12] = tested on: L-363 (Plasma Cell Myeloma)
Procedure, shortened: as §1

[13] = tested on: NCI-H2023 (Non-Small Cell Lung Carcinoma)
Procedure, shortened: as §1

[14] = tested on: OVKATE (Ovarian Carcinoma)
Procedure, shortened: as §1

C32 (Melanoma) = tested on: C32 (Melanoma)
Procedure, shortened: as §1

NCI-H2452 (Mesothelioma) = tested on: NCI-H2452 (Mesothelioma)
Procedure, shortened: as §1

A375 (Melanoma) = tested on: A375 (Melanoma)
Procedure, shortened: as §1

Row | Structure (SMILES) | Bliss excess [1] | Bliss excess (GCIY (Gastric Carcinoma)) | Bliss excess [2] | Bliss excess [3] | Bliss excess [4] | Bliss excess (SK-MEL-24 (Melanoma)) | Bliss excess [5] | Bliss excess [6] | Bliss excess [7] | Bliss excess (MG-63 (Osteosarcoma)) | Bliss excess [8] | Bliss excess [9] | Bliss excess [10] | Bliss excess [11] | Bliss excess [12] | Bliss excess [13] | Bliss excess [14] | Bliss excess (C32 (Melanoma)) | Bliss excess (NCI-H2452 (Mesothelioma)) | Bliss excess (A375 (Melanoma))
1 | C=CCn1c(=O)c2cnc(Nc3ccc(N4CCN(C)CC4)cc3)nc2n1-c1cccc(C(C)(C)O)n1 [AZD1775] + C1CN(CCC1(C(=O)N[C@@H](CCO)C2=CC=C(C=C2)Cl)N)C3=NC=NC4=C3C=CN4 [Capivasertib] (first compound max 3 µM, partner max 3 µM) | 0.0011 | -0.0277 | -0.0627 | -0.0885 | 0.0084 | 0.0047 | -0.0128 | -0.0528 | -0.0011 | -0.0484 | 0.0171 | -0.0888 | 0.0279 | -0.0786 | -0.0379 | -0.003 | -0.0239 | -0.0772 | -0.116 | 
2 | CN(CCO)CC[C@H](CSc1ccccc1)Nc1ccc(S(=O)(=O)NC(=O)c2ccc(N3CCC([C@@H](O)c4ccccc4-c4ccc(Cl)cc4)CC3)cc2)cc1S(=O)(=O)C(F)(F)F [AZD4320] + C1CN(CCC1(C(=O)N[C@@H](CCO)C2=CC=C(C=C2)Cl)N)C3=NC=NC4=C3C=CN4 [Capivasertib] (first compound max 1 µM, 7x7, partner max 3 µM) | 0.0003 | 0.0298 | -0.0378 | -0.0681 | 0.0394 | -0.0428 | -0.0637 | -0.0219 | -0.0467 | -0.0785 | 0.0425 | -0.0497 | -0.0342 | -0.0793 | 0.0659 | -0.103 | -0.0775 | -0.0564 | -0.0757 | -0.0414
3 | CN(CCO)CC[C@H](CSc1ccccc1)Nc1ccc(S(=O)(=O)NC(=O)c2ccc(N3CCC([C@@H](O)c4ccccc4-c4ccc(Cl)cc4)CC3)cc2)cc1S(=O)(=O)C(F)(F)F [AZD4320] + CC(=O)O[C@H]1C(=O)[C@@]2(C)[C@H]([C@H](OC(=O)c3ccccc3)[C@]3(O)C[C@H](OC(=O)[C@H](O)[C@@H](NC(=O)c4ccccc4)c4ccccc4)C(C)=C1C3(C)C)[C@]1(OC(C)=O)CO[C@@H]1C[C@@H]2O [Paclitaxel] (first compound max 1 µM, 7x7, partner max 3 µM) | 0.167 | 0.131 | 0.0195 | 0.0162 | -0.0038 | 0.0574 | 0.185 | 0.0773 | 0.0889 | 0.0471 | 0.107 | 0.0662 | 0.0045 | 0.0387 | -0.0131 | 0.0458 | 0.113 | 0.107 | 0.117 | 0.0759
4 | CN(CCO)CC[C@H](CSc1ccccc1)Nc1ccc(S(=O)(=O)NC(=O)c2ccc(N3CCC([C@@H](O)c4ccccc4-c4ccc(Cl)cc4)CC3)cc2)cc1S(=O)(=O)C(F)(F)F [AZD4320] + CCN(CCO)CCCOc1ccc2c(Nc3cc(CC(=O)Nc4cccc(F)c4)[nH]n3)ncnc2c1 [AZD2811] (first compound max 1 µM, 7x7, partner max 1 µM) | 0.004 | -0.0067 | -0.0523 | 0.0505 | 0.0501 | -0.0647 | -0.0204 | 0.0218 | -0.0461 | 0.0838 | 0.0289 | -0.0238 | 0.091 | 0.0224 | -0.015 | -0.0636 | -0.0204 | 0.114 | -0.0111 | 0.0107
5 | CN(CCO)CC[C@H](CSc1ccccc1)Nc1ccc(S(=O)(=O)NC(=O)c2ccc(N3CCC([C@@H](O)c4ccccc4-c4ccc(Cl)cc4)CC3)cc2)cc1S(=O)(=O)C(F)(F)F [AZD4320] + C[C@@H]1COCCN1C2=NC(=NC(=C2)C3(CC3)[S@](=N)(=O)C)C4=C5C=CNC5=NC=C4 [AZD6738] (first compound max 1 µM, 7x7, partner max 10 µM) | 0.0366 | 0.0264 | -0.0711 | 0.0039 | 0.031 | -0.0584 | -0.0338 | -0.0048 | -0.0099 | -0.0762 | -0.0429 | -0.0236 | -0.0014 | -0.0184 | -0.007 | -0.0255 | -0.0581 | 0.0653 | -0.0246 | -0.0221
6 | CN(CCO)CC[C@H](CSc1ccccc1)Nc1ccc(S(=O)(=O)NC(=O)c2ccc(N3CCC([C@@H](O)c4ccccc4-c4ccc(Cl)cc4)CC3)cc2)cc1S(=O)(=O)C(F)(F)F [AZD4320] + C[C@@H](Nc1cc(F)cc(F)c1)c1cc(C(=O)N(C)C)cc2c(=O)cc(N3CCOCC3)oc12 [AZD8186] (first compound max 1 µM, 7x7, partner max 3 µM) | 0.131 | 0.0022 | -0.0279 | -0.0216 | 0.0715 | -0.0354 | 0.0068 | 0.0145 | -0.0035 | -0.0149 | 0.0271 | -0.0706 | 0.0677 | -0.0093 | 0.0753 | -0.034 | -0.0277 | -0.0046 | -0.0369 | 0
7 | CN(CCO)CC[C@H](CSc1ccccc1)Nc1ccc(S(=O)(=O)NC(=O)c2ccc(N3CCC([C@@H](O)c4ccccc4-c4ccc(Cl)cc4)CC3)cc2)cc1S(=O)(=O)C(F)(F)F [AZD4320] + Cc1cc2ncnn2cc1Nc1ncc2c(n1)n(C1CCOCC1)c(=O)n2C [AZD7648] (first compound max 1 µM, 7x7, partner max 10 µM) | 0.0137 | -0.0452 | -0.0146 | 0.0501 | 0.0194 | -0.0429 | -0.0628 | -0.0118 | -0.0437 | -0.0463 | -0.0145 | -0.0232 | 0.0246 | -0.0767 | 0.0181 | -0.0585 | -0.0269 | -0.0275 | -0.011 | -0.0312
8 | CN(CCO)CC[C@H](CSc1ccccc1)Nc1ccc(S(=O)(=O)NC(=O)c2ccc(N3CCC([C@@H](O)c4ccccc4-c4ccc(Cl)cc4)CC3)cc2)cc1S(=O)(=O)C(F)(F)F [AZD4320] + Nc1ccn([C@@H]2O[C@H](CO)[C@@H](O)C2(F)F)c(=O)n1 [Gemcitabine] (first compound max 1 µM, 7x7, partner max 0.3 µM) | -0.0344 | -0.0151 | -0.0111 | 0.0117 | -0.0457 | -0.0082 | -0.0024 | -0.0055 | -0.013 | 0.0293 | 0.125 | -0.0192 | -0.0074 | 0.0194 | 0.0563 | 0.0338 | -0.0542 | 0.0027 | -0.0035 | 0.0047
9 | Cc1cc2ncnn2cc1Nc1ncc2c(n1)n(C1CCOCC1)c(=O)n2C [AZD7648] + C=CCn1c(=O)c2cnc(Nc3ccc(N4CCN(C)CC4)cc3)nc2n1-c1cccc(C(C)(C)O)n1 [AZD1775] (first compound max 10 µM, partner max 1 µM) | 0.0816 | -0.028 | -0.0431 | 0.0279 | -0.0213 | -0.015 | 0.0584 | -0.0292 | -0.0271 | 0.0269 | -0.0282 | -0.0327 | 0.004 | -0.0374 | 0.0185 | 0.027 | -0.001 | 0.0106 | 0.0647 | 0.0217
10 | Cc1cc2ncnn2cc1Nc1ncc2c(n1)n(C1CCOCC1)c(=O)n2C [AZD7648] + CCN(CCO)CCCOc1ccc2c(Nc3cc(CC(=O)Nc4cccc(F)c4)[nH]n3)ncnc2c1 [AZD2811] (first compound max 10 µM, 7x7, partner max 1 µM) | 0.0409 | 0.0949 | -0.0508 | 0.0245 | -0.0443 | -0.0121 | 0.0489 | -0.0195 | 0.0669 | 0.0401 | -0.0042 | -0.0035 | 0.035 | 0.0455 | 0.0321 | -0.0238 | -0.0834 | 0.0271 | 0.001 | 0.0251
11 | Cc1cc2ncnn2cc1Nc1ncc2c(n1)n(C1CCOCC1)c(=O)n2C [AZD7648] + CN(C)CCCOc1ccc(-c2ccc3ncc4c(c3c2)n(C2CCOCC2)c(=O)n4C)cn1 [AZD0156] (first compound max 10 µM, 7x7, partner max 1 µM) | 0.0091 | -0.0458 | -0.0369 | 0.0348 | 0.0104 | -0.0325 | -0.0064 | -0.0542 | -0.0019 | 0.0397 | -0.0453 | 0.0037 | 0.0465 | 0.0332 | 0.0303 | -0.0192 | -0.0132 | 0.003 | -0.0457 | 0.0165
12 | C[C@@H](c1ccc2nccn2c1)n1nnc2ncc(-c3cnn(C)c3)nc21 [Savolitinib] + CN(CC[C@H](CSC1=CC=CC=C1)NC2=C(C=C(C=C2)S(=O)(=O)NC(=O)C3=CC=C(C=C3)N4CCC(CC4)[C@H](C5=CC=CC=C5C6=CC=C(C=C6)Cl)O)S(=O)(=O)C(F)(F)F)CCO [AZD4320] (first compound max 1 µM, 7x7, partner max 1 µM) |  |  |  |  |  |  |  |  |  |  |  |  |  |  |  |  |  | -0.0103 |  | -0.0463
